According to US8470888B2, “Botryllamides and method of inhibiting PGP in a mammal afflicted with cancer” (The United States of America, as represented by the …, priority 2008, dated 2013):

Key:
Format in all cases: cell-based
[1] = target: ABCG2 (Homo sapiens (Human), UniProt Q9UNQ0); assay: Pheophorbide a accumulation assay for ABCG2 inhibitors in NCI-H460/MX20 cells; settings: for IC50: 1 μM pheophorbide a, 18 h; for Pheophorbide a max activity, % of FTC response: normalized to 10 μM FTC
Experimental: Accumulation of pheophorbide a, a fluorescent ABCG2 substrate (Jonker et al., Proc. Natl. Acad. Sci. USA, 99: 15649-54 (2002) and Robey et al., Cancer Res., 64: 1242-6 (2004)), formed the basis of the assay for inhibitors of ABCG2 activity (Henrich et al., J. Biomol. Screen, 11: 176-83 (2006)). Briefly, NCI-H460/MX20 cells are transferred to black wall, clear bottom 384-well polylysine-coated assay plates (Corning, Corning, N.Y.) and allowed to attach for several hours. Pheophorbide a (1 μM final concentration) is added immediately followed by compounds or vehicle (DMSO/PBS) control and incubated an additional 18 h. After removal of medium and washing with PBS containing Ca^2+ and Mg^2+, fluorescence intensity is read on a Tecan Safire fluorescence plate reader in bottom read mode, 395 nm excitation, and 670 nm emission. Each plate has control wells containing 10 μM (final concentration) FTC. Data are normalized to FTC and reported as % of FTC fluorescence.

[2] = target: Pgp (Homo sapiens (Human), UniProt P08183); assay: Flow assay, rhodamine 123 efflux in transfected HEK293 cells expressing Pgp; settings: 10 μM compound; 0.5 μg/ml rhodamine 123
[3] = target: MRP1 (Homo sapiens (Human), UniProt P33527); assay: Flow assay, calcein efflux in transfected HEK293 cells expressing MRP1; settings: 10 μM compound; 200 nM calcein AM
MRP1, sequence (P33527 whole entry): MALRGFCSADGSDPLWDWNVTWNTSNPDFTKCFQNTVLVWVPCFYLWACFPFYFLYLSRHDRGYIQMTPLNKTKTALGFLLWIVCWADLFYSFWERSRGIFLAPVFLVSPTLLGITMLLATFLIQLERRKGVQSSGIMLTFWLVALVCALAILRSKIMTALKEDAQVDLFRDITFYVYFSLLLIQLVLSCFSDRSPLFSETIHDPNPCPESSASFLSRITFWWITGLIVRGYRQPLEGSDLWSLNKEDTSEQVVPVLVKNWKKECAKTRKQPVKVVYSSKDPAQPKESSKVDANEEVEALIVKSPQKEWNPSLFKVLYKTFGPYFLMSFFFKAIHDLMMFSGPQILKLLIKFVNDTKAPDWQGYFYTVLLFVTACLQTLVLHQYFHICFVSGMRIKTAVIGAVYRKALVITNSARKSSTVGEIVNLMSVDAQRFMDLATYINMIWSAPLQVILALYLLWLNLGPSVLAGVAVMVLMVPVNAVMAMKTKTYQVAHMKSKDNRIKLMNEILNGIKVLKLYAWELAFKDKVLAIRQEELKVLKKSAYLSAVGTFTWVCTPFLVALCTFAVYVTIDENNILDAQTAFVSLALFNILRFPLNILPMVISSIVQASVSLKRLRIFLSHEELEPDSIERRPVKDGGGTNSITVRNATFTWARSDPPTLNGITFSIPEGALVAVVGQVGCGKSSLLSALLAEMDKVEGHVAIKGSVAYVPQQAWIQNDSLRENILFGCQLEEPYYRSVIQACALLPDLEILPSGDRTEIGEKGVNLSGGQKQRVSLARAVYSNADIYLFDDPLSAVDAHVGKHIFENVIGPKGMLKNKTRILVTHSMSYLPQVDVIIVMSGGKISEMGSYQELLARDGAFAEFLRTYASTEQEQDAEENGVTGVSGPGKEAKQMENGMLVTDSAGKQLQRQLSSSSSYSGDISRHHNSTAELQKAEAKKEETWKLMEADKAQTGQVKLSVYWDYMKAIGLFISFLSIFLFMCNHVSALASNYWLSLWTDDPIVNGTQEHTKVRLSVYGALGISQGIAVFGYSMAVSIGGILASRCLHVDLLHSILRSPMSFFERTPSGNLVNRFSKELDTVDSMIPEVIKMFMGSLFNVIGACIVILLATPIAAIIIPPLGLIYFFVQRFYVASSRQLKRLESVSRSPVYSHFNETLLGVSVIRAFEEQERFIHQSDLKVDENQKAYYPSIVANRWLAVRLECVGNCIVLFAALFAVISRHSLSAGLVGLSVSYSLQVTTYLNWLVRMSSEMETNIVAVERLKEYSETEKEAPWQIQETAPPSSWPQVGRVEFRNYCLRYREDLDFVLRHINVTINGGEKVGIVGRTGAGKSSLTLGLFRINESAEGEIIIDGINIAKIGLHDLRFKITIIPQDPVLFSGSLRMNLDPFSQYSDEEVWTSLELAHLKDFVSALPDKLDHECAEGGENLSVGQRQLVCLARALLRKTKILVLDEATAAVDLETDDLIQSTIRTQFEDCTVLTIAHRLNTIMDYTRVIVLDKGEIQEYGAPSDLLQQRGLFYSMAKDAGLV

ABCG2, sequence (Q9UNQ0 whole entry): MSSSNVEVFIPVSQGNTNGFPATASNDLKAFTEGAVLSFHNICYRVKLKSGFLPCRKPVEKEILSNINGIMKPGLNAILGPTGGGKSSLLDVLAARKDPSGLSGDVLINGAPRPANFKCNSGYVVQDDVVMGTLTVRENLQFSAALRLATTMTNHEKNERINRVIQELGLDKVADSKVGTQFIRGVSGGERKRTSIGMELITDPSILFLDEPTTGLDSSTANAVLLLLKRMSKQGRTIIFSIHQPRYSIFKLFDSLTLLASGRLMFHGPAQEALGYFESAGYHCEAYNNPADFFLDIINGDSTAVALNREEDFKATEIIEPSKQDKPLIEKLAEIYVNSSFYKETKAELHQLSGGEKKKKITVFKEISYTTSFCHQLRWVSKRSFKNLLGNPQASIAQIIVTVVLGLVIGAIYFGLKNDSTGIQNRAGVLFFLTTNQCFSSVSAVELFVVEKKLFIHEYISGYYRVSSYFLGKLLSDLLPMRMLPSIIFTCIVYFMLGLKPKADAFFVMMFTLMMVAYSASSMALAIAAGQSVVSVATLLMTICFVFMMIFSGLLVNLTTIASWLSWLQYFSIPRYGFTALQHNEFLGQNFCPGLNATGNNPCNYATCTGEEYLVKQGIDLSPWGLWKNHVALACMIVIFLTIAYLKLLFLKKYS
Pgp, sequence (P08183 whole entry): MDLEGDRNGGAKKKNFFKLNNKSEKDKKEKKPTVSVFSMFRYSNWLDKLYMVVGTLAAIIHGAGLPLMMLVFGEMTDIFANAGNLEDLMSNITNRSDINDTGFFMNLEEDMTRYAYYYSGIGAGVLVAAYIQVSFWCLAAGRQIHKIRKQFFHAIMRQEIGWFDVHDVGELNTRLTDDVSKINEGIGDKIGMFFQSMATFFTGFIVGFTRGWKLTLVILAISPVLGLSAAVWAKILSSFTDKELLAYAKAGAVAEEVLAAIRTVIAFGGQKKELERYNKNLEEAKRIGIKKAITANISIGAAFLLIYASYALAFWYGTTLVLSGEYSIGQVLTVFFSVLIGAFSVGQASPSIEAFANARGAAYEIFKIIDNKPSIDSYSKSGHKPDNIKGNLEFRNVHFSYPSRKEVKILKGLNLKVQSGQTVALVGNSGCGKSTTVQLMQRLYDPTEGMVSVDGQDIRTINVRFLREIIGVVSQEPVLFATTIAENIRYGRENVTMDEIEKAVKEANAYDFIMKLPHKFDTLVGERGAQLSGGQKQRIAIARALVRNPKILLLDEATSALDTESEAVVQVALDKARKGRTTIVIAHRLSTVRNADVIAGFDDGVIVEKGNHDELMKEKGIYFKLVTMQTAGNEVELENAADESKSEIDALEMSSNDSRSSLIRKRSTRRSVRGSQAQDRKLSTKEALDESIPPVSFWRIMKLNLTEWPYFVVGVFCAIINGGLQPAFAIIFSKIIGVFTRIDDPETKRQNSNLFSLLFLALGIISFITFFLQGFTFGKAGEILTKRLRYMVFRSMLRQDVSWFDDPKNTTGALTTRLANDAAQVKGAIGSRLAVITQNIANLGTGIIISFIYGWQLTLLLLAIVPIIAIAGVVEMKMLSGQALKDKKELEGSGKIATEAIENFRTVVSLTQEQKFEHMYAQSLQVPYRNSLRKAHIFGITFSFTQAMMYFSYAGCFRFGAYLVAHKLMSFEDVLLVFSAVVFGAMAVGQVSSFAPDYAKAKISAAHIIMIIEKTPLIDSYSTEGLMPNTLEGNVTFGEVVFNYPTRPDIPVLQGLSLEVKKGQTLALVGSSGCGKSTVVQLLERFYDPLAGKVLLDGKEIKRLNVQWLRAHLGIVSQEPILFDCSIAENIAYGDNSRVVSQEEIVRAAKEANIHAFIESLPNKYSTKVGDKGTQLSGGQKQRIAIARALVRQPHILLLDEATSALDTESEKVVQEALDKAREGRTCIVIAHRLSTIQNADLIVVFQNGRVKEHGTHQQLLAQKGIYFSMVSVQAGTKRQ

| Compound | IC50 [1] | Pheophorbide a max activity, % of FTC response ([1]; 40 μM compound) | Flow-Pgp, Fold Increase (Pgp inhibition, rhodamine efflux: treated/control ratio) [2] | Flow-MRP1, Fold Increase (MRP1 inhibition, calcein efflux: treated/control ratio) [3] | Pheophorbide a max activity, % of FTC response ([1]; 80 μM compound) |
| --- | --- | --- | --- | --- | --- |
| botryllamide B | 11.2 µM | 84.3 (40 μM) % | 1.95 fold | 3.26 fold | – |
| CO/C(=C\c1ccc(O)cc1)C(=O)N/C=C/c1ccc(O)cc1 [Botryllamide F, botryllamide F] | 16.7 µM | – | 0.59 fold | 3.33 fold | 81.0% |
| CO/C(=C\c1ccc(O)cc1)C(=O)N/C=C/c1cc(Br)c(O)c(Br)c1 [Botryllamide G, botryllamide G] | 6.9 µM | 123.7 (40 μM) % | 0.68 fold | 2.1 fold | – |
| CO/C(=C\c1ccc(O)cc1)C(=O)N/C=C/c1cc(Br)c(OC)c(Br)c1 [Botryllamide A, botryllamide A] | 33 µM | – | 17.63 fold | 4.5 fold | 89.7% |
| CO/C(=C\c1ccc(O)cc1)C(=O)N/C=C/c1ccc(OC)cc1 [Botryllamide E, botryllamide E] | 23.3 µM | – | 0.76 fold | 1.96 fold | 68.8% |
| CO/C(=C\c1ccc(O)cc1)C(=O)N/C=C/c1ccc(OC)c(Br)c1 [Botryllamide D, botryllamide D] | 16.4 µM | – | 1.49 fold | 2.39 fold | 63.5% |
| CO/C(=C\c1ccc(O)cc1)C(=O)N/C=C/c1ccc(OC)cc1 [Botryllamide I, botryllamide I] | 41.4 µM | – | 0.8 fold | 3.14 fold | 71.3% |
| botryllamide J | 26.9 µM | – | 0.58 fold | 2.54 fold | 70.5% |
